From patent US10004701B2, “Methods and compositions for treating infection” (UNIVERSITY OF ROCHESTER, priority 2012, dated 2018)
Structures can show the parent of a compound that is named as a salt. Where two headings read alike, the source gives them in different places.

How the values were obtained:
Experiment in all cases: AK assay 384-well format, Prestwick library screening
E. faecium = assay type: cell-based, Enterococcus faecium; conditions: 50 μM final drug concentration; for fold induction at 50 µM: Enterococcus faecium, 3 h; for AK-based Prestwick Library Screening Results, E. faecium (fold increase in extracellular AK activity): cutoff for positive 3-fold increase
[1] = tested on: S. aureus strain USA300-0114; assay type: cell-based, Staphylococcus aureus; conditions: 50 μM final drug concentration; for fold induction at 50 µM: Staphylococcus aureus, USA300, 3 h; for AK-based Prestwick Library Screening Results, S. aureus (fold increase in extracellular AK activity): cutoff for positive 3-fold increase
K. pneumoniae = assay type: cell-based, Klebsiella pneumoniae; conditions: 50 μM final drug concentration; for fold induction at 50 µM: Klebsiella pneumoniae, 3 h; for AK-based Prestwick Library Screening Results, K. pneumoniae (fold increase in extracellular AK activity): cutoff for positive 3-fold increase
[2] = tested on: A. baumannii strain 98-37-09; assay type: cell-based, Acinetobacter baumannii; conditions: 50 μM final drug concentration; for fold induction at 50 µM: Acinetobacter baumannii, 983709, 3 h; for AK-based Prestwick Library Screening Results, A. baumannii (fold increase in extracellular AK activity): cutoff for positive 3-fold increase
P. aeruginosa = assay type: cell-based, Pseudomonas aeruginosa; conditions: 50 μM final drug concentration; for fold induction at 50 µM: Pseudomonas aeruginosa, 3 h; for AK-based Prestwick Library Screening Results, P. aeruginosa (fold increase in extracellular AK activity): cutoff for positive 3-fold increase
E. cloacae = assay type: cell-based, Enterobacter cloacae; conditions: 50 μM final drug concentration; for fold induction at 50 µM: Enterobacter cloacae, 3 h; for AK-based Prestwick Library Screening Results, E. cloacae (fold increase in extracellular AK activity): cutoff for positive 3-fold increase
E. coli = assay type: cell-based, Escherichia coli; conditions: 50 μM final drug concentration; for fold induction at 50 µM: Escherichia coli, 3 h; for AK-based Prestwick Library Screening Results, E. coli (fold increase in extracellular AK activity): cutoff for positive 3-fold increase
[3] = planktonic, cutoff for positive-scoring molecules 3-fold increase, read-out: AK-based Prestwick Library Screening Results, E. faecium (fold increase in extracellular AK activity)
[4] = planktonic, cutoff for positive-scoring molecules 3-fold increase, read-out: AK-based Prestwick Library Screening Results, S. aureus (fold increase in extracellular AK activity)
[5] = planktonic, cutoff for positive-scoring molecules 3-fold increase, read-out: AK-based Prestwick Library Screening Results, K. pneumoniae (fold increase in extracellular AK activity)
[6] = planktonic, cutoff for positive-scoring molecules 3-fold increase, read-out: AK-based Prestwick Library Screening Results, A. baumannii (fold increase in extracellular AK activity)
[7] = planktonic, cutoff for positive-scoring molecules 3-fold increase, read-out: AK-based Prestwick Library Screening Results, P. aeruginosa (fold increase in extracellular AK activity)
[8] = planktonic, cutoff for positive-scoring molecules 3-fold increase, read-out: AK-based Prestwick Library Screening Results, E. cloacae (fold increase in extracellular AK activity)
[9] = planktonic, cutoff for positive-scoring molecules 3-fold increase, read-out: AK-based Prestwick Library Screening Results, E. coli (fold increase in extracellular AK activity)
[10] = cutoff for positive-scoring molecules 3-fold increase, read-out: AK-based Prestwick Library Screening Results, E. faecium (fold increase in extracellular AK activity)
[11] = cutoff for positive-scoring molecules 3-fold increase, read-out: AK-based Prestwick Library Screening Results, S. aureus (fold increase in extracellular AK activity)
[12] = cutoff for positive-scoring molecules 3-fold increase, read-out: AK-based Prestwick Library Screening Results, K. pneumoniae (fold increase in extracellular AK activity)
[13] = cutoff for positive-scoring molecules 3-fold increase, read-out: AK-based Prestwick Library Screening Results, A. baumannii (fold increase in extracellular AK activity)
[14] = cutoff for positive-scoring molecules 3-fold increase, read-out: AK-based Prestwick Library Screening Results, P. aeruginosa (fold increase in extracellular AK activity)
[15] = cutoff for positive-scoring molecules 3-fold increase, read-out: AK-based Prestwick Library Screening Results, E. cloacae (fold increase in extracellular AK activity)
[16] = cutoff for positive-scoring molecules 3-fold increase, read-out: AK-based Prestwick Library Screening Results, E. coli (fold increase in extracellular AK activity)

SMILES: CC(=O)OC(C)C[N+](C)(C)C (stereo not shown) [Methacholine chloride]
- fold induction at 50 µM (E. faecium; [3]): 0.9
- fold induction at 50 µM [1, 4]: 0.7
- fold induction at 50 µM (K. pneumoniae; [5]): 0.7
- fold induction at 50 µM [2, 6]: 0.8
- fold induction at 50 µM (P. aeruginosa; [7]): 0.9
- fold induction at 50 µM (E. cloacae; [8]): 1.3
- fold induction at 50 µM (E. coli; [9]): 0.9

SMILES: C=C1c2cccc(O)c2C(=O)C2=C(O)[C@]3(O)C(=O)C(C(N)=O)=C(O)[C@@H](N(C)C)[C@@H]3[C@@H](O)[C@H]12 [Methacycline hydrochloride]
- fold induction at 50 µM (E. faecium; [10]): 0.9
- fold induction at 50 µM [1, 11]: 1.9
- fold induction at 50 µM (K. pneumoniae; [12]): 0.2
- fold induction at 50 µM [2, 13]: 4.2
- fold induction at 50 µM (P. aeruginosa; [14]): 0.2
- fold induction at 50 µM (E. cloacae; [15]): 0.4
- fold induction at 50 µM (E. coli; [16]): 3.2

SMILES: CC[N+](C)(CC)CCOC(=O)C1c2ccccc2Oc2ccccc21 [Methantheline bromide]
- fold induction at 50 µM (E. faecium; planktonic E. faecium, positive cutoff 3-fold increase, read-out: AK-based Prestwick library screening result, E. faecium (fold increase in extracellular AK activity)): 0.9
- fold induction at 50 µM ([1]; planktonic S. aureus, positive cutoff 3-fold increase, read-out: AK-based Prestwick library screening result, S. aureus (fold increase in extracellular AK activity)): 0.7
- fold induction at 50 µM (K. pneumoniae; planktonic K. pneumoniae, positive cutoff 3-fold increase, read-out: AK-based Prestwick library screening result, K. pneumoniae (fold increase in extracellular AK activity)): 0.8
- fold induction at 50 µM ([2]; planktonic A. baumannii, positive cutoff 3-fold increase, read-out: AK-based Prestwick library screening result, A. baumannii (fold increase in extracellular AK activity)): 0.8
- fold induction at 50 µM (P. aeruginosa; planktonic P. aeruginosa, positive cutoff 3-fold increase, read-out: AK-based Prestwick library screening result, P. aeruginosa (fold increase in extracellular AK activity)): 0.9
- fold induction at 50 µM (E. cloacae; planktonic E. cloacae, positive cutoff 3-fold increase, read-out: AK-based Prestwick library screening result, E. cloacae (fold increase in extracellular AK activity)): 1.1
- fold induction at 50 µM (E. coli; planktonic E. coli, positive cutoff 3-fold increase, read-out: AK-based Prestwick library screening result, E. coli (fold increase in extracellular AK activity)): 0.9

SMILES: CC(=O)/N=c1/sc(S(N)(=O)=O)nn1C [Methazolamide]
- fold induction at 50 µM (E. faecium; [3]): 1.5
- fold induction at 50 µM [1, 4]: 0.6
- fold induction at 50 µM (K. pneumoniae; [5]): 0.5
- fold induction at 50 µM [2, 6]: 0.5
- fold induction at 50 µM (P. aeruginosa; [7]): 0.6
- fold induction at 50 µM (E. cloacae; [8]): 0.7
- fold induction at 50 µM (E. coli; [9]): 0.5

SMILES: COC(=O)Nc1nc2ccc(SC(C)C)cc2[nH]1 [Methiazole]
- AK-based Prestwick library screening result, E. faecium (fold increase in extracellular AK activity) (E. faecium; planktonic E. faecium, positive cutoff 3-fold increase): 0.5
- AK-based Prestwick library screening result, S. aureus (fold increase in extracellular AK activity) ([1]; planktonic S. aureus, positive cutoff 3-fold increase): 1.3
- AK-based Prestwick library screening result, K. pneumoniae (fold increase in extracellular AK activity) (K. pneumoniae; planktonic K. pneumoniae, positive cutoff 3-fold increase): 0.4
- AK-based Prestwick library screening result, A. baumannii (fold increase in extracellular AK activity) ([2]; planktonic A. baumannii, positive cutoff 3-fold increase): 0.5
- AK-based Prestwick library screening result, P. aeruginosa (fold increase in extracellular AK activity) (P. aeruginosa; planktonic P. aeruginosa, positive cutoff 3-fold increase): 0.5
- AK-based Prestwick library screening result, E. cloacae (fold increase in extracellular AK activity) (E. cloacae; planktonic E. cloacae, positive cutoff 3-fold increase): 1.3
- AK-based Prestwick library screening result, E. coli (fold increase in extracellular AK activity) (E. coli; planktonic E. coli, […]): 0.4

SMILES: Cn1cc[nH]c1=S [Methimazole]
- fold induction at 50 µM (E. faecium; [10]): 0.9
- fold induction at 50 µM [1, 11]: 1
- fold induction at 50 µM (K. pneumoniae; [12]): 1
- fold induction at 50 µM [2, 13]: 1.4
- fold induction at 50 µM (P. aeruginosa; [14]): 1
- fold induction at 50 µM (E. cloacae; [15]): 27.1
- fold induction at 50 µM (E. coli; [16]): 1.2

SMILES: CS(=N)(=O)CC[C@H](N)C(=O)O (stereo partly shown) [Methionine sulfoximine (L)]
- AK-based Prestwick Library Screening Results, E. faecium (fold increase in extracellular AK activity) (E. faecium; planktonic): 1.0
- AK-based Prestwick Library Screening Results, S. aureus (fold increase in extracellular AK activity) ([1]; planktonic): 1.1
- AK-based Prestwick Library Screening Results, K. pneumoniae (fold increase in extracellular AK activity) (K. pneumoniae; planktonic): 0.9
- AK-based Prestwick Library Screening Results, A. baumannii (fold increase in extracellular AK activity) ([2]; planktonic): 1.0
- AK-based Prestwick Library Screening Results, P. aeruginosa (fold increase in extracellular AK activity) (P. aeruginosa; planktonic): 1.2
- AK-based Prestwick Library Screening Results, E. cloacae (fold increase in extracellular AK activity) (E. cloacae; planktonic): 1.5
- AK-based Prestwick Library Screening Results, E. coli (fold increase in extracellular AK activity) (E. coli; planktonic): 1.3

SMILES: CSc1ccc2c(c1)C(N1CCN(C)CC1)Cc1ccccc1S2.O=C(O)/C=C\C(=O)O (stereo not shown) [Methiothepin maleate]
- AK-based Prestwick Library Screening Results, E. faecium (fold increase in extracellular AK activity) (E. faecium; planktonic): 1.0
- AK-based Prestwick Library Screening Results, S. aureus (fold increase in extracellular AK activity) ([1]; planktonic): 1.3
- AK-based Prestwick Library Screening Results, K. pneumoniae (fold increase in extracellular AK activity) (K. pneumoniae; planktonic): 1.3
- AK-based Prestwick Library Screening Results, A. baumannii (fold increase in extracellular AK activity) ([2]; planktonic): 1.5
- AK-based Prestwick Library Screening Results, P. aeruginosa (fold increase in extracellular AK activity) (P. aeruginosa; planktonic): 1.1
- AK-based Prestwick Library Screening Results, E. cloacae (fold increase in extracellular AK activity) (E. cloacae; planktonic): 1.8
- AK-based Prestwick Library Screening Results, E. coli (fold increase in extracellular AK activity) (E. coli; planktonic): 1.4

SMILES: COc1ccccc1OCC(O)COC(N)=O (stereo not shown) [Methocarbamol]
- fold induction at 50 µM (E. faecium; 384-well format, cutoff for positive-scoring molecules 3-fold increase, read-out: AK-based Prestwick Library Screening Results, E. faecium (increase in extracellular AK activity)): 0.9
- fold induction at 50 µM ([1]; 384-well format, cutoff for positive-scoring molecules 3-fold increase, read-out: AK-based Prestwick Library Screening Results, S. aureus (increase in extracellular AK activity)): 0.8
- fold induction at 50 µM (K. pneumoniae; 384-well format, cutoff for positive-scoring molecules 3-fold increase, read-out: AK-based Prestwick Library Screening Results, K. pneumoniae (increase in extracellular AK activity)): 0.6
- fold induction at 50 µM ([2]; 384-well format, cutoff for positive-scoring molecules 3-fold increase, read-out: AK-based Prestwick Library Screening Results, A. baumannii (increase in extracellular AK activity)): 0.9
- fold induction at 50 µM (P. aeruginosa; 384-well format, cutoff for positive-scoring molecules 3-fold increase, read-out: AK-based Prestwick Library Screening Results, P. aeruginosa (increase in extracellular AK activity)): 0.9
- fold induction at 50 µM (E. cloacae; 384-well format, cutoff for positive-scoring molecules 3-fold increase, read-out: AK-based Prestwick Library Screening Results, E. cloacae (increase in extracellular AK activity)): 1
- fold induction at 50 µM (E. coli; 384-well format, cutoff for positive-scoring molecules 3-fold increase, read-out: AK-based Prestwick Library Screening Results, E. coli (increase in extracellular AK activity)): 0.9

SMILES: CN(Cc1cnc2nc(N)nc(N)c2n1)c1ccc(C(=O)N[C@@H](CCC(=O)O)C(=O)O)cc1 [Methotrexate]
- fold induction at 50 µM (E. faecium; planktonic E. faecium, 384-well, cutoff for positive-scoring molecules 3-fold increase, read-out: AK-based Prestwick Library Screening Results: E. faecium (increase in extracellular AK activity)): 0.8
- fold induction at 50 µM ([1]; planktonic S. aureus, 384-well, cutoff for positive-scoring molecules 3-fold increase, read-out: AK-based Prestwick Library Screening Results: S. aureus (increase in extracellular AK activity)): 0.9
- fold induction at 50 µM (K. pneumoniae; planktonic K. pneumoniae, 384-well, cutoff for positive-scoring molecules 3-fold increase, read-out: AK-based Prestwick Library Screening Results: K. pneumoniae (increase in extracellular AK activity)): 0.8
- fold induction at 50 µM ([2]; planktonic A. baumannii, 384-well, cutoff for positive-scoring molecules 3-fold increase, read-out: AK-based Prestwick Library Screening Results: A. baumannii (increase in extracellular AK activity)): 1
- fold induction at 50 µM (P. aeruginosa; planktonic P. aeruginosa, 384-well, cutoff for positive-scoring molecules 3-fold increase, read-out: AK-based Prestwick Library Screening Results: P. aeruginosa (increase in extracellular AK activity)): 1
- fold induction at 50 µM (E. cloacae; planktonic E. cloacae, 384-well, cutoff for positive-scoring molecules 3-fold increase, read-out: AK-based Prestwick Library Screening Results: E. cloacae (increase in extracellular AK activity)): 1.3
- fold induction at 50 µM (E. coli; planktonic E. coli, 384-well, […], read-out: AK-based Prestwick Library Screening Results: E. coli (increase in extracellular AK activity)): 1.1
